Laboratory results from US11034650B2, “Compounds useful for treating a Mannheimia haemolytica or Histophilus somni infection” (Intervet Inc., priority 2016, dated 2021).
Values after ≈ are worked out from the molar mass of the structure shown.

What was measured:
Type in all cases: cell-based
[1] = tested on: Pasteurella multocida PM 6391 (ATCC 43137, reference strain); test: MIC, broth-microdilution (CLSI VET01-A4), strain PM 6391; settings: Pasteurella multocida strain PM 6391, broth-microdilution; unit assumed
In short: (§1)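 Test articles are arrayed as a twofold dilution range in microdilution trays. Wells are scored by naked eye, and the MIC is taken where turbidity first disappears.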

[2] = tested on: Pasteurella multocida PM 6267 (P 2225 (L386), reference strain, mouse infection strain); test: MIC, broth-microdilution (CLSI VET01-A4), strain PM 6267; settings: Pasteurella multocida strain PM 6267, broth-microdilution; unit assumed
In short: as §1

[3] = tested on: Mannheimia haemolytica MH 10720 (154, BRD field isolate); test: MIC, broth-microdilution (CLSI VET01-A4), strain MH 10720; settings: Mannheimia haemolytica strain MH 10720, broth-microdilution; unit assumed
In short: as §1

[4] = tested on: Mannheimia haemolytica MH 6357 (M7/2, reference strain, cattle infection strain); test: MIC, broth-microdilution (CLSI VET01-A4), strain MH 6357; settings: Mannheimia haemolytica strain MH 6357, broth-microdilution; unit assumed
In short: as §1

[5] = tested on: Pasteurella multocida PM 12080 (IV102277-0093, BRD field isolate); test: MIC, broth-microdilution (CLSI VET01-A4), strain PM 12080; settings: Pasteurella multocida strain PM 12080, broth-microdilution; unit assumed
In short: as §1

[6] = tested on: Mannheimia haemolytica MH 13093 (XB0472-6014.1, BRD field isolate); test: MIC, broth-microdilution (CLSI VET01-A4), strain MH 13093; settings: Mannheimia haemolytica strain MH 13093, broth-microdilution; unit assumed
In short: as §1

[7] = tested on: Pasteurella multocida PM 10775 (080130003051, BRD field isolate); test: MIC, broth-microdilution (CLSI VET01-A4), strain PM 10775; settings: Pasteurella multocida strain PM 10775, broth-microdilution; unit assumed
In short: as §1

[8] = tested on: Mannheimia haemolytica MH 12587 (1071, BRD field isolate, macrolide-resistance: erm+, E+); test: MIC, broth-microdilution (CLSI VET01-A4), strain MH 12587; settings: Mannheimia haemolytica strain MH 12587, broth-microdilution; unit assumed
In short: as §1

[9] = tested on: Mannheimia haemolytica MH 13065 (XB0446-6003.9, BRD field isolate); test: MIC, broth-microdilution (CLSI VET01-A4), strain MH 13065; settings: Mannheimia haemolytica strain MH 13065, broth-microdilution; unit assumed
In short: as §1

[10] = tested on: Mannheimia haemolytica MH 6374 (ATCC 33396, reference strain); test: MIC, broth-microdilution (CLSI VET01-A4), strain MH 6374; settings: Mannheimia haemolytica strain MH 6374, broth-microdilution; unit assumed
In short: as §1

Compound | MIC PM 6391 [1] [µg/mL] | MIC PM 6267 [2] [µg/mL] | MIC MH 10720 [3] [µg/mL] | MIC MH 6357 [4] [µg/mL] | MIC PM 12080 [5] [µg/mL] | MIC MH 13093 [6] [µg/mL] | MIC PM 10775 [7] [µg/mL] | MIC MH 12587 [8] [µg/mL] | MIC MH 13065 [9] [µg/mL] | MIC MH 6374 [10] [µg/mL]
CC(C)([C@H](NC(=O)c1ccc(C#Cc2ccc(CNCc3ccccc3)s2)cc1)C(=O)NO)S(C)(=O)=O [Compound 315] | ≤ 0.1 | 0.2 (≈ 0.371 µM) | ≤ 0.1 | ≤ 0.1 | ≤ 0.1 | 0.4 (≈ 0.741 µM) | ≤ 0.1 | 0.4 (≈ 0.741 µM) | ≤ 0.1 | ≤ 0.1
CC(C)([C@H](NC(=O)c1ccc(C#Cc2ccc(CNCc3ccco3)nc2)cc1)C(=O)NO)S(C)(=O)=O [Compound 354] | 0.4 (≈ 0.762 µM) | 0.8 (≈ 1.52 µM) | 0.2 (≈ 0.381 µM) | 0.4 (≈ 0.762 µM) | 0.2 (≈ 0.381 µM) | 0.8 (≈ 1.52 µM) | ≤ 0.1 | 1.6 (≈ 3.05 µM) | 1.6 (≈ 3.05 µM) | 0.8 (≈ 1.52 µM)
CC(C)(O)[C@H](NC(=O)c1ccc(C#Cc2ccc(CNCc3ccco3)nc2)cc1)C(=O)NO [Compound 332] | 0.4 (≈ 0.865 µM) | 0.4 (≈ 0.865 µM) | ≤ 0.1 | 0.4 (≈ 0.865 µM) | 0.2 (≈ 0.432 µM) | 0.8 (≈ 1.73 µM) | ≤ 0.1 | 1.6 (≈ 3.46 µM) | 0.8 (≈ 1.73 µM) | 0.4 (≈ 0.865 µM)
CSC(C)(C)[C@H](NC(=O)c1ccc(C#Cc2ccc(CNCc3nccs3)s2)cc1)C(=O)NO [Compound 365] | 0.4 (≈ 0.777 µM) | 0.4 (≈ 0.777 µM) | 0.2 (≈ 0.389 µM) | 0.8 (≈ 1.55 µM) | ≤ 0.1 | 1.6 (≈ 3.11 µM) | ≤ 0.1 | 3.1 (≈ 6.02 µM) | 1.6 (≈ 3.11 µM) | 0.8 (≈ 1.55 µM)
CSC(C)(C)[C@H](NC(=O)c1ccc(C#Cc2ccc(CNCc3ccccn3)cc2)cc1)C(=O)NO [Compound 249] | 0.8 (≈ 1.59 µM) | 0.2 (≈ 0.398 µM) | 0.2 (≈ 0.398 µM) | 0.8 (≈ 1.59 µM) | 0.4 (≈ 0.796 µM) | 0.8 (≈ 1.59 µM) | ≤ 0.1 | 1.6 (≈ 3.18 µM) | 0.8 (≈ 1.59 µM) | 1.6 (≈ 3.18 µM)
O=C(N[C@@H](CO)C(=O)NO)c1ccc(C#Cc2ccc([N+](=O)[O-])cc2)cc1 [Compound 375, N-[(1S)-2-(hydroxyamino)-1-(hydroxymethyl)-2-oxo-ethyl]-4-[2-(4-nitrophenyl)ethynyl]benzamide] | 1.6 (≈ 4.33 µM) | 0.8 (≈ 2.17 µM) | 0.8 (≈ 2.17 µM) | 1.6 (≈ 4.33 µM) | 3.1 (≈ 8.39 µM) | 6.3 (≈ 17.1 µM) | ≤ 0.1 | 6.3 (≈ 17.1 µM) | 3.1 (≈ 8.39 µM) | 3.1 (≈ 8.39 µM)
CCCNCc1ccc(C#Cc2ccc(C(=O)N[C@H](C(=O)NO)[C@@H](C)CC)cc2)cc1 [Compound 193] | 0.8 (≈ 1.9 µM) | 0.4 (≈ 0.949 µM) | 0.8 (≈ 1.9 µM) | 6.3 (≈ 14.9 µM) | 0.4 (≈ 0.949 µM) | 3.1 (≈ 7.35 µM) | ≤ 0.1 | 6.3 (≈ 14.9 µM) | 3.1 (≈ 7.35 µM) | 6.3 (≈ 14.9 µM)
CC(C)[C@H](NC(=O)c1ccc(C#Cc2ccc(CNC3CCC3)cc2)cc1)C(=O)NO [Compound 210] | 0.2 (≈ 0.477 µM) | ≤ 0.1 | 0.8 (≈ 1.91 µM) | 1.6 (≈ 3.81 µM) | ≤ 0.1 | 3.1 (≈ 7.39 µM) | ≤ 0.1 | 6.3 (≈ 15 µM) | 1.6 (≈ 3.81 µM) | 3.1 (≈ 7.39 µM)
CC(C)(O)[C@H](NC(=O)c1ccc(C#Cc2ccc(CNCc3ccncc3)cc2)cc1)C(=O)NO [Compound 275] | ≤ 0.1 | ≤ 0.1 | ≤ 0.1 | 0.4 (≈ 0.846 µM) | ≤ 0.1 | 0.4 (≈ 0.846 µM) | ≤ 0.1 | 0.4 (≈ 0.846 µM) | 0.2 (≈ 0.423 µM) | 0.2 (≈ 0.423 µM)
CSC(C)(C)[C@H](NC(=O)c1ccc(C#Cc2ccc(CNCc3cccnc3)s2)cc1)C(=O)NO [Compound 306] | 0.4 (≈ 0.786 µM) | 0.8 (≈ 1.57 µM) | 0.2 (≈ 0.393 µM) | 0.8 (≈ 1.57 µM) | 0.4 (≈ 0.786 µM) | 0.8 (≈ 1.57 µM) | ≤ 0.1 | 3.1 (≈ 6.09 µM) | 0.8 (≈ 1.57 µM) | 0.8 (≈ 1.57 µM)
CC(C)[C@H](NC(=O)c1ccc(C#Cc2ccc(CNCc3cccs3)cc2)cc1)C(=O)NO [Compound 171] | 0.2 (≈ 0.433 µM) | ≤ 0.1 | ≤ 0.1 | 0.2 (≈ 0.433 µM) | ≤ 0.1 | 0.4 (≈ 0.867 µM) | ≤ 0.1 | 0.8 (≈ 1.73 µM) | 0.2 (≈ 0.433 µM) | 0.4 (≈ 0.867 µM)
CON=C(C)[C@H](NC(=O)c1ccc(C#Cc2ccc(CN3CCCC3)cc2)cc1)C(=O)NO [Compound 384] | 0.4 (≈ 0.892 µM) | 12.5 (≈ 27.9 µM) | 3.1 (≈ 6.91 µM) | 6.3 (≈ 14 µM) | 1.6 (≈ 3.57 µM) | 6.3 (≈ 14 µM) | 3.1 (≈ 6.91 µM) | 1.6 (≈ 3.57 µM) | 6.3 (≈ 14 µM) | 12.5 (≈ 27.9 µM)
CC[C@H](C)[C@H](NC(=O)c1ccc(C#Cc2ccc(CNC(C)COC)cc2)cc1)C(=O)NO (stereo partly drawn) [Compound 185] | 0.8 (≈ 1.77 µM) | ≤ 0.1 | 0.8 (≈ 1.77 µM) | 3.1 (≈ 6.86 µM) | 0.4 (≈ 0.886 µM) | 6.3 (≈ 14 µM) | ≤ 0.1 | 6.3 (≈ 14 µM) | 3.1 (≈ 6.86 µM) | 6.3 (≈ 14 µM)
CC[C@H](C)[C@H](NC(=O)c1ccc(C#Cc2ccc(CNC3CCCCC3)cc2)cc1)C(=O)NO [Compound 195] | 0.8 (≈ 1.73 µM) | 0.2 (≈ 0.433 µM) | 1.6 (≈ 3.47 µM) | 6.3 (≈ 13.6 µM) | 0.4 (≈ 0.867 µM) | 12.5 (≈ 27.1 µM) | ≤ 0.1 | 12.5 (≈ 27.1 µM) | 6.3 (≈ 13.6 µM) | 12.5 (≈ 27.1 µM)
CC(C)[C@H](NC(=O)c1ccc(C#Cc2ccc(CN3CCCCC3)cc2)cc1)C(=O)NO [Compound 166] | 0.8 (≈ 1.85 µM) | 0.2 (≈ 0.461 µM) | 0.8 (≈ 1.85 µM) | 3.1 (≈ 7.15 µM) | 0.4 (≈ 0.923 µM) | 6.3 (≈ 14.5 µM) | ≤ 0.1 | 6.3 (≈ 14.5 µM) | 6.3 (≈ 14.5 µM) | 6.3 (≈ 14.5 µM)
CC(=O)C(NC(=O)c1ccc(C#Cc2ccc(CNC3CCCC3)cc2)cc1)C(=O)NO (stereo not drawn) [Compound 405] | 0.8 (≈ 1.85 µM) | 100 (≈ 231 µM) | 6.3 (≈ 14.5 µM) | 25 (≈ 57.7 µM) | 0.8 (≈ 1.85 µM) | 25 (≈ 57.7 µM) | 3.1 (≈ 7.15 µM) | 12.5 (≈ 28.8 µM) | 0.8 (≈ 1.85 µM) | 50 (≈ 115 µM)
CSC(C)(C)[C@H](NC(=O)c1ccc(C#Cc2ccc(CNCc3ccncc3)nc2)cc1)C(=O)NO [Compound 341] | 0.8 (≈ 1.59 µM) | 1.6 (≈ 3.18 µM) | 0.2 (≈ 0.397 µM) | 0.8 (≈ 1.59 µM) | 0.4 (≈ 0.794 µM) | 1.6 (≈ 3.18 µM) | 0.2 (≈ 0.397 µM) | 3.1 (≈ 6.16 µM) | 1.6 (≈ 3.18 µM) | 1.6 (≈ 3.18 µM)
CC(C)(O)[C@H](NC(=O)c1ccc(C#Cc2ccc(CNCc3ncccn3)nc2)cc1)C(=O)NO [Compound 363] | 3.1 (≈ 6.53 µM) | 1.6 (≈ 3.37 µM) | 3.1 (≈ 6.53 µM) | 6.3 (≈ 13.3 µM) | 1.6 (≈ 3.37 µM) | 25 (≈ 52.7 µM) | 0.4 (≈ 0.843 µM) | 25 (≈ 52.7 µM) | 12.5 (≈ 26.3 µM) | 6.3 (≈ 13.3 µM)
CSC(C)(C)[C@H](NC(=O)c1ccc(C#Cc2ccc(CNCc3cccnc3)nc2)cc1)C(=O)NO [Compound 367] | 0.4 (≈ 0.794 µM) | 0.4 (≈ 0.794 µM) | 0.4 (≈ 0.794 µM) | 0.8 (≈ 1.59 µM) | 0.2 (≈ 0.397 µM) | 3.1 (≈ 6.16 µM) | ≤ 0.1 | 3.1 (≈ 6.16 µM) | 1.6 (≈ 3.18 µM) | 0.8 (≈ 1.59 µM)
CSC(C)(C)[C@H](NC(=O)c1ccc(C#Cc2ccc(CNCc3ccc(C)cc3)cc2)cc1)C(=O)NO [Compound 252] | 0.8 (≈ 1.55 µM) | 0.4 (≈ 0.776 µM) | 0.4 (≈ 0.776 µM) | 1.6 (≈ 3.1 µM) | 0.8 (≈ 1.55 µM) | 1.6 (≈ 3.1 µM) | 0.4 (≈ 0.776 µM) | 3.1 (≈ 6.01 µM) | 1.6 (≈ 3.1 µM) | 3.1 (≈ 6.01 µM)
CC[C@H](C)[C@H](NC(=O)c1ccc(C#Cc2ccc(CN(C)CCOC)cc2)cc1)C(=O)NO [Compound 178] | 0.8 (≈ 1.77 µM) | 0.2 (≈ 0.443 µM) | 0.8 (≈ 1.77 µM) | 1.6 (≈ 3.54 µM) | 0.4 (≈ 0.886 µM) | 3.1 (≈ 6.86 µM) | ≤ 0.1 | 6.3 (≈ 14 µM) | 1.6 (≈ 3.54 µM) | 3.1 (≈ 6.86 µM)
